Source: patent US10512265B2, “Pesticidally active heterocyclic derivatives with sulphur containing substituents” (Syngenta Participations AG, priority 2015, dated 2019)

Experiments:
Format in all cases: in vivo
[1] = system: Spodoptera littoralis (Egyptian cotton leaf worm); assay: Example B1: activity against Spodoptera littoralis, sprayed cotton leaf discs; conditions: foliar, 72 h, application rate 200 ppm, L1 larvae, 3 days after infestation, read-out: control of Spodoptera littoralis (at least one of mortality, anti-feedant effect, growth inhibition)
Description: Example B1: Activity Against Spodoptera littoralis (Egyptian Cotton Leaf Worm)
Cotton leaf discs were placed on agar in 24-well microtiter plates and sprayed with aqueous test solutions prepared from 10′000 ppm DMSO stock solutions. After drying the leaf discs were infested with five L1 larvae. The samples were assessed for mortality, anti-feedant effect, and growth inhibition in comparison to untreated samples 3 days after infestation. Control of Spodoptera littoralis by a test sample is when at least one of mortality, anti-feedant effect, and growth inhibition is higher than the untreated sample.

[2] = system: Spodoptera littoralis (Egyptian cotton leaf worm); assay: Example B2: activity against Spodoptera littoralis, systemic via lettuce grown on treated agar; conditions: 144 h, test rate 12.5 ppm, in agar, uptake by lettuce roots, Spodoptera eggs, 6 days after infestation, read-out: effect in at least one of the three categories (mortality, anti-feedancy, or growth inhibition)
Excerpt: Example B2: Activity Against Spodoptera littoralis (Egyptian Cotton Leaf Worm)
Test compounds were applied by pipette from 10′000 ppm DMSO stock solutions into 24-well plates and mixed with agar. Lettuce seeds were placed on the agar and the multi well plate was closed by another plate which contains also agar. After 7 days the roots have absorbed the compound and the lettuce has grown into the lid plate. The lettuce leafs were now cut off into the lid plate. Spodoptera eggs were pipetted through a plastic stencil on a humid gel blotting paper and the plate closed with it.
The samples were assessed for mortality, anti-feedant effect and growth inhibition in comparison to untreated samples 6 days after infestation.

[3] = system: Plutella xylostella (diamond back moth); assay: Example B3: activity against Plutella xylostella, treated artificial diet; conditions: 120 h, application rate 200 ppm, L2 larvae, 5 days after infestation, read-out: effect in at least one of the two categories (mortality or growth inhibition)
Description: Example B3: Activity Against Plutella xylostella (Diamond Back Moth)
24-well microtiter plates with artificial diet were treated with aqueous test solutions prepared from 10′000 ppm DMSO stock solutions by pipetting. After drying, the plates were infested with L2 larvae (10 to 15 per well). The samples were assessed for mortality and growth inhibition in comparison to untreated samples 5 days after infestation.

[4] = system: Diabrotica balteata (corn root worm); assay: Example B4: activity against Diabrotica balteata, sprayed maize sprouts; conditions: 96 h, application rate 200 ppm, L2 larvae, 4 days after infestation, read-out: effect in at least one of the two categories (mortality or growth inhibition)
Description: Example B4: Activity Against Diabrotica Balteata (Corn Root Worm)
Maize sprouts, placed on an agar layer in 24-well microtiter plates were treated with aqueous test solutions prepared from 10′000 ppm DMSO stock solutions by spraying. After drying, the plates were infested with L2 larvae (6 to 10 per well). The samples were assessed for mortality and growth inhibition in comparison to untreated samples 4 days after infestation.

[5] = system: Myzus persicae (green peach aphid); assay: Example B5: activity against Myzus persicae, sprayed sunflower leaf discs; conditions: foliar, 144 h, application rate 200 ppm, aphid population of mixed ages, 6 days after infestation
Description: Example B5: Activity Against Myzus persicae (Green Peach Aphid)
Sunflower leaf discs were placed on agar in a 24-well microtiter plate and sprayed with aqueous test solutions prepared from 10′000 ppm DMSO stock solutions. After drying, the leaf discs were infested with an aphid population of mixed ages. The samples were assessed for mortality 6 days after infestation.

[6] = system: Frankliniella occidentalis (western flower thrips); assay: Example B7: activity against Frankliniella occidentalis, sprayed sunflower leaf discs; conditions: foliar, 168 h, application rate 200 ppm, population of mixed ages, 7 days after infestation
Description: Example B7: Activity Against Frankliniella occidentalis (Western Flower Thrips)
Sunflower leaf discs were placed on agar in 24-well microtiter plates and sprayed with aqueous test solutions prepared from […] stock solutions. After drying the leaf discs were infested with a Frankliniella population of mixed ages. The samples were assessed for mortality 7 days after infestation.

[7] = system: Tetranychus urticae (two-spotted spider mite); assay: Example B10: activity against Tetranychus urticae, sprayed bean leaf discs; conditions: foliar, 192 h, application rate 200 ppm, mixed population (mobile stages), 8 days after infestation
Description: Example B10: Activity Against Tetranychus urticae (Two-Spotted Spider Mite)
Bean leaf discs on agar in 24-well microtiter plates were sprayed with aqueous test solutions prepared from 10′000 ppm DMSO stock solutions. After drying the leaf discs were infested with a mite population of mixed ages. The samples were assessed for mortality on mixed population (mobile stages) 8 days after infestation.

[8] = system: Aedes aegypti (yellow fever mosquito); assay: Example B11: activity against Aedes aegypti, dry deposits in tissue culture plates; conditions: 200 ppm in ethanol, dry deposit, adult females, after 48 h and/or 24 h
Description: Example B11: Activity Against Aedes Aegypti (Yellow Fever Mosquito)
Test solutions, at an application rate of 200 ppm in ethanol, were applied to 12-well tissue culture plates. Once the deposits were dry, five, two to five days old adult female Aedes aegypti were added to each well, and sustained with a 10% sucrose solution in a cotton wool plug. Assessment of knockdown was made one hour after introduction, and mortality was assessed at 24 and 48 hours after introduction.

CCS(=O)(=O)c1cc(-c2ccc(F)cc2)cnc1-c1ncc(-c2ccc(C(F)(F)F)nc2)n1C [Compound P3, 3-ethylsulfonyl-5-(4-fluorophenyl)-2-[1-methyl-5-[6-(trifluoromethyl)-3-pyridyl]imidazol-2-yl]pyridine]
≥ 80%: mortality at 200 ppm [1] | percent control (mortality, anti-feedancy or growth inhibition) at 12.5 ppm [2] | percent effect (mortality or growth inhibition) at 200 ppm [3] | percent effect (mortality or growth inhibition) at 200 ppm [4] | mortality at 200 ppm [5] | mortality at 200 ppm [6] | mortality at 200 ppm [7] | pest or weed control at 200 ppm [8]
